# Values of other authors in patent US7098224B2, “Hydroxylansoprazole methods” (Sepracor Inc., priority 1998, dated 2006).
# System: isolated parietal cells
# Conditions: Inatomi et al., Yakuri to Chiryo 19, 477–486 (1991)
SMILES,"IC50 (read-out: inhibited acid formation in isolated parietal cells, IC50)",inhibition of acid formation in isolated parietal cells (result in words)
"Cc1c(OCC(F)(F)F)ccnc1C[S+]([O-])c1nc2ccccc2[nH]1 (racemic) [lansoprazole, Lansoprazole]",90 nM,–
"Cc1c(OCC(F)(F)F)ccnc1C[S+]([O-])c1nc2cc(O)ccc2[nH]1 (racemic) [racemic hydroxylansoprazole, 2[[[3-methyl-4-(2,2,2-trifluoroethoxy)-2-pyridinyl]methyl]sulfinyl]-1 H-benzimidazol-5-ol]",–,did not inhibit acid formation
